Results published in ChEMBL document CHEMBL5113398, “Design and synthesis of new quinoline derivatives as selective C-RAF kinase inhibitors with potent anticancer activity” (Eur J Med Chem, 2022).
One block for each compound: values may come before it.

What was measured:
NCI-H226 = assay: Anticancer activity against human NCI-H226 cells assessed as cell growth inhibition incubated for 48 hrs by SRB assay; assay type: functional
COLO 205 [1] = assay: Anticancer activity against human COLO 205 cells assessed as cell growth inhibition incubated for 48 hrs by SRB assay; assay type: functional
HCT-116 = assay: Anticancer activity against human HCT-116 cells assessed as cell growth inhibition incubated for 48 hrs by SRB assay; assay type: functional
KM12 = assay: Anticancer activity against human KM12 cells assessed as cell growth inhibition incubated for 48 hrs by SRB assay; assay type: functional
SW-620 [2] = assay: Anticancer activity against human SW-620 cells assessed as cell growth inhibition incubated for 48 hrs by SRB assay; assay type: functional
SNB-19 = assay: Anticancer activity against human SNB-19 cells assessed as cell growth inhibition incubated for 48 hrs by SRB assay; assay type: functional
SNB-75 [3] = assay: Anticancer activity against human SNB-75 cells assessed as cell growth inhibition incubated for 48 hrs by SRB assay; assay type: functional
LOX IMVI = assay: Anticancer activity against human LOX IMVI cells assessed as cell growth inhibition incubated for 48 hrs by SRB assay; assay type: functional
Malme-3M = assay: Anticancer activity against human Malme-3M cells assessed as cell growth inhibition incubated for 48 hrs by SRB assay; assay type: functional
M14 = assay: Anticancer activity against human M14 cells assessed as cell growth inhibition incubated for 48 hrs by SRB assay; assay type: functional
SK-MEL-5 = assay: Anticancer activity against human SK-MEL-5 cells assessed as cell growth inhibition incubated for 48 hrs by SRB assay; assay type: functional
UACC-257 = assay: Anticancer activity against human UACC-257 cells assessed as cell growth inhibition incubated for 48 hrs by SRB assay; assay type: functional
IGROV-1 = assay: Anticancer activity against human IGROV-1 cells assessed as cell growth inhibition incubated for 48 hrs by SRB assay; assay type: functional
UO-31 [4] = assay: Anticancer activity against human UO-31 cells assessed as cell growth inhibition incubated for 48 hrs by SRB assay; assay type: functional
MDA-MB-231 [5] = assay: Anticancer activity against human MDA-MB-231 cells assessed as cell growth inhibition incubated for 48 hrs by SRB assay; assay type: functional
CCRF-CEM = assay: Anticancer activity against human CCRF-CEM cells assessed as total cell growth inhibition incubated for 48 hrs by SRB assay; assay type: functional
RPMI-8226 [6] = assay: Anticancer activity against human RPMI-8226 cells assessed as total cell growth inhibition incubated for 48 hrs by SRB assay; assay type: functional
EKVX = assay: Anticancer activity against human EKVX cells assessed as total cell growth inhibition incubated for 48 hrs by SRB assay; assay type: functional
COLO 205 [7] = assay: Anticancer activity against human COLO 205 cells assessed as total cell growth inhibition incubated for 48 hrs by SRB assay; assay type: functional
SW-620 [8] = assay: Anticancer activity against human SW-620 cells assessed as total cell growth inhibition incubated for 48 hrs by SRB assay; assay type: functional
SF-295 = assay: Anticancer activity against human SF-295 cells assessed as total cell growth inhibition incubated for 48 hrs by SRB assay; assay type: functional
SF-539 = assay: Anticancer activity against human SF-539 cells assessed as total cell growth inhibition incubated for 48 hrs by SRB assay; assay type: functional
SNB-75 [9] = assay: Anticancer activity against human SNB-75 cells assessed as total cell growth inhibition incubated for 48 hrs by SRB assay; assay type: functional
U-251 = assay: Anticancer activity against human U-251 cells assessed as total cell growth inhibition incubated for 48 hrs by SRB assay; assay type: functional
SK-MEL-2 = assay: Anticancer activity against human SK-MEL-2 cells assessed as total cell growth inhibition incubated for 48 hrs by SRB assay; assay type: functional
UACC-62 = assay: Anticancer activity against human UACC-62 cells assessed as total cell growth inhibition incubated for 48 hrs by SRB assay; assay type: functional
OVCAR-3 = assay: Anticancer activity against human OVCAR-3 cells assessed as total cell growth inhibition incubated for 48 hrs by SRB assay; assay type: functional
NCI/ADR-RES = assay: Anticancer activity against human NCI/ADR-RES cells assessed as total cell growth inhibition incubated for 48 hrs by SRB assay; assay type: functional
786-0 = assay: Anticancer activity against human 786-0 cells assessed as total cell growth inhibition incubated for 48 hrs by SRB assay; assay type: functional
ACHN = assay: Anticancer activity against human ACHN cells assessed as total cell growth inhibition incubated for 48 hrs by SRB assay; assay type: functional
SN12C = assay: Anticancer activity against human SN12C cells assessed as total cell growth inhibition incubated for 48 hrs by SRB assay; assay type: functional
UO-31 [10] = assay: Anticancer activity against human UO-31 cells assessed as total cell growth inhibition incubated for 48 hrs by SRB assay; assay type: functional
PC-3 = assay: Anticancer activity against human PC-3 cells assessed as total cell growth inhibition incubated for 48 hrs by SRB assay; assay type: functional
MDA-MB-231 [11] = assay: Anticancer activity against human MDA-MB-231 cells assessed as total cell growth inhibition incubated for 48 hrs by SRB assay; assay type: functional
[12] = Cytotoxicity against human WI-38 cells assessed as cell growth inhibition incubated for 48 hrs by SRB assay; assay type: toxicity, cell-based
Homo sapiens = species on record: Homo sapiens; assay: Inhibition of ABL (unknown origin) at 1 uM in presence of ATP by hotspot kinase assay
[13] = target: Serine/threonine-protein kinase A-Raf (Homo sapiens) (UniProt P10398); assay: Inhibition of A-Raf (unknown origin) at 1 uM in presence of ATP by hotspot kinase assay
[14] = target: Dual specificity mitogen-activated protein kinase kinase 2 (Homo sapiens) (UniProt P36507); assay: Inhibition of MEK2 (unknown origin) at 1 uM in presence of ATP by hotspot kinase assay
[15] = tested on: Serine/threonine-protein kinase B-raf (Homo sapiens), P15056 [V600E]; assay: Inhibition of B-RAF V600E mutant (unknown origin) at 1 uM in presence of ATP by hotspot kinase assay
RPMI-8226 [16] = assay: Induction of apoptosis in human RPMI-8226 assessed as fold increase in caspase-3/7 activity at 0.84 uM; assay type: functional
RPMI-8226 [17] = assay: Induction of apoptosis in human RPMI-8226 assessed as fold increase in caspase-3/7 activity at 1.68 uM; assay type: functional
RPMI-8226 [18] = assay: Induction of apoptosis in human RPMI-8226 assessed as fold increase in caspase-3/7 activity at 2.12 uM; assay type: functional
RPMI-8226 [19] = assay: Induction of necrosis in human RPMI-8226 cells assessed as LDH release at 0.84 uM; assay type: functional
RPMI-8226 [20] = assay: Induction of necrosis in human RPMI-8226 cells assessed as LDH release at 1.68 uM; assay type: functional
RPMI-8226 [21] = assay: Induction of necrosis in human RPMI-8226 cells assessed as LDH release at 2.12 uM; assay type: functional
[22] = Apparent permeability of the compound from apical to basolateral side in human Caco-2 cells at pH 6.5 to 7.4; assay type: ADME, cell-based; settings: Caco-2, pH 6.5
[23] = Apparent permeability across apical to basolateral side in human Caco-2 cells assessed as drug recovery at pH 6.5 to 7.4; assay type: ADME, cell-based; settings: Caco-2, pH 6.5, read-out: Drug recovery

Dual specificity mitogen-activated protein kinase kinase 2 (Homo sapiens), sequence (P36507 whole entry): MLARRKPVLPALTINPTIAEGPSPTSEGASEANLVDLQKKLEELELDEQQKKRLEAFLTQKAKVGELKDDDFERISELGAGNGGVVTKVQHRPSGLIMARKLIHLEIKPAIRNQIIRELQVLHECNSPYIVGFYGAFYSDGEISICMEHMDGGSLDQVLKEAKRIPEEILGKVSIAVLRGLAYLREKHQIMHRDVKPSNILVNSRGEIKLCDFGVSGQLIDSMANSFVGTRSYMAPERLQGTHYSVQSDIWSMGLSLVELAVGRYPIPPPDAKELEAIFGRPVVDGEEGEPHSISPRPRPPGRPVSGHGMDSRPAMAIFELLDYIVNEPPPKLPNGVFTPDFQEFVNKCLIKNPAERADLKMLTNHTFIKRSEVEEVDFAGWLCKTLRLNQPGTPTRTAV
Serine/threonine-protein kinase B-raf (Homo sapiens), P15056 [V600E], sequence (P15056 whole entry V600E): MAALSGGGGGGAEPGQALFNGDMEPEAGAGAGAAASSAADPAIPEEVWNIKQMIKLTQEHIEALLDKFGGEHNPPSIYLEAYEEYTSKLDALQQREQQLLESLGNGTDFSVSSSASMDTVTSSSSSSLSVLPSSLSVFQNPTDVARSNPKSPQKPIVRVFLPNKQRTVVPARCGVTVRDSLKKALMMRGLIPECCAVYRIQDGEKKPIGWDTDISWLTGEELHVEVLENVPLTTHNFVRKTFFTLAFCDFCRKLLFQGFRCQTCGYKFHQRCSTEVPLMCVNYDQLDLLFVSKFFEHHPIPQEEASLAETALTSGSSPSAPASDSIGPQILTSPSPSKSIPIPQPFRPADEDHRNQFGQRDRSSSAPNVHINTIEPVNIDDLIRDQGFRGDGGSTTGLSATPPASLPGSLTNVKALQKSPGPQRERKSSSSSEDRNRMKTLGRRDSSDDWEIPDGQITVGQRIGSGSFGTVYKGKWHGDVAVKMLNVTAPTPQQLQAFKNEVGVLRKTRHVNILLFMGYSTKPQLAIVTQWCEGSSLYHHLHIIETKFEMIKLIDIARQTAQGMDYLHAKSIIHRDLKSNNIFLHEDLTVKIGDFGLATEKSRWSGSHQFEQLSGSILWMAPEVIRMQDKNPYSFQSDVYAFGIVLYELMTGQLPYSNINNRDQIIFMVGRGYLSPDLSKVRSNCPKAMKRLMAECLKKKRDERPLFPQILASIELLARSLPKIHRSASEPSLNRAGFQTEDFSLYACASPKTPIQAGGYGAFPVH
Serine/threonine-protein kinase A-Raf (Homo sapiens), sequence (P10398 whole entry): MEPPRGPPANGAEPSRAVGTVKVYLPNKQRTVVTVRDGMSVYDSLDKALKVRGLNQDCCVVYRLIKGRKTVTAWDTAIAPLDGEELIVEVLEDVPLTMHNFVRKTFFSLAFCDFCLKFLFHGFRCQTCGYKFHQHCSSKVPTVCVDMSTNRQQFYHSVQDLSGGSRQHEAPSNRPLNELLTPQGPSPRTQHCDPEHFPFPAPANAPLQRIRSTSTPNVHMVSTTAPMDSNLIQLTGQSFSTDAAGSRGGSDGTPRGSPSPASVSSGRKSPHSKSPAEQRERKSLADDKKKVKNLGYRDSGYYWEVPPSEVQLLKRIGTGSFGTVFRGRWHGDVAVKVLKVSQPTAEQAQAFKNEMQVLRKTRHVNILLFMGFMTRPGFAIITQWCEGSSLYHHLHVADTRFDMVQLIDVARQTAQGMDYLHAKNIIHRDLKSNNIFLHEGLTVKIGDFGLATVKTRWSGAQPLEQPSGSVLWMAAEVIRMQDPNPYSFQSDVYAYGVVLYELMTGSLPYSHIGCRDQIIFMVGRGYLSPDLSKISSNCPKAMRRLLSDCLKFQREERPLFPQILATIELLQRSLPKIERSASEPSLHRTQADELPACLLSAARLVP

- GI50 (NCI-H226): 1.6 µM
- GI50 (COLO 205 [1]): 1.02 µM
- GI50 (HCT-116): 1.42 µM
- GI50 (SW-620 [2]): 1.72 µM
- GI50 (SK-MEL-5): 0.89 µM
- GI50 (MDA-MB-231 [5]): 1.7 µM
- inhibition (Homo sapiens): -2.3%
- inhibition [13]: 1.23%
- inhibition [14]: 16.4%
- inhibition [15]: 34.6%
- Papp A→B [22]: 0.4 ×10⁻⁶ cm/s
- recovery [23]: 74%
Structure (SMILES): COc1cc2cc(Oc3ccc(NC(=O)Nc4cc(C(F)(F)F)cc(C(F)(F)F)c4)cc3)c(C)nc2cc1OCCN1CCOCC1
- GI50 (KM12): 1.53 µM
- GI50 (SNB-19): 1.88 µM
- GI50 (SNB-75 [3]): 1.02 µM
- GI50 (LOX IMVI): 1.46 µM
- GI50 (Malme-3M): 1.2 µM
- GI50 (M14): 1.51 µM
- GI50 (UACC-257): 1.4 µM
- GI50 (IGROV-1): 1.54 µM
- GI50 (UO-31 [4]): 1.01 µM
- TGI (CCRF-CEM): 6.57 µM
- TGI (RPMI-8226 [6]): 2.12 µM
- TGI (EKVX): 6.68 µM
- TGI (COLO 205 [7]): 2.18 µM
- TGI (SW-620 [8]): 7.17 µM
- TGI (SF-295): 2.92 µM
- TGI (SF-539): 5.25 µM
- TGI (SNB-75 [9]): 4.48 µM
- TGI (U-251): 2.85 µM
- TGI (SK-MEL-2): 6.91 µM
- TGI (UACC-62): 6.9 µM
- TGI (OVCAR-3): 5.28 µM
- TGI (NCI/ADR-RES): 7.21 µM
- TGI (786-0): 3.65 µM
- TGI (ACHN): 5.42 µM
- TGI (SN12C): 5.48 µM
- TGI (UO-31 [10]): 4.06 µM
- TGI (PC-3): 5.16 µM
- TGI (MDA-MB-231 [11]): 6.45 µM
- GI50 at 48 h [12]: > 20 µM
- fold change (FC) (RPMI-8226 [16]): 1.97
- fold change (FC) (RPMI-8226 [17]): 2.68
- fold change (FC) (RPMI-8226 [18]): 2.84
- Activity (RPMI-8226 [19]): 9.5%
- Activity (RPMI-8226 [20]): 23.4%
- Activity (RPMI-8226 [21]): 31.65%

- GI50 (NCI-H226): 1.86 µM
- GI50 (COLO 205 [1]): 1.63 µM
- GI50 (HCT-116): 10.8 µM
- GI50 (SW-620 [2]): 5.52 µM
- GI50 (SK-MEL-5): 1.15 µM
- GI50 (MDA-MB-231 [5]): 2 µM
- inhibition (Homo sapiens): -5.6%
- inhibition [13]: -6.33%
- inhibition [14]: 17.3%
- inhibition [15]: 28.5%
Structure (SMILES): COc1cc2cc(Oc3ccc(NC(=O)Nc4ccc(Cl)c(C(F)(F)F)c4)cc3)c(C)nc2cc1OCCN1CCOCC1
- GI50 (KM12): 5.3 µM
- GI50 (SNB-19): 3.23 µM
- GI50 (SNB-75 [3]): 1.65 µM
- GI50 (LOX IMVI): 1.39 µM
- GI50 (Malme-3M): 1.52 µM
- GI50 (M14): 1.52 µM
- GI50 (UACC-257): 1.57 µM
- GI50 (IGROV-1): 2.43 µM
- GI50 (UO-31 [4]): 1.4 µM
- TGI (CCRF-CEM): > 100 µM
- TGI (RPMI-8226 [6]): 4.34 µM
- TGI (EKVX): 13.7 µM
- TGI (COLO 205 [7]): 3.78 µM
- TGI (SW-620 [8]): 5.52 µM
- TGI (SF-295): 2.85 µM
- TGI (SF-539): 3.26 µM
- TGI (SNB-75 [9]): 7.05 µM
- TGI (U-251): 3.9 µM
- TGI (SK-MEL-2): 4.06 µM
- TGI (UACC-62): 3.46 µM
- TGI (OVCAR-3): 3.47 µM
- TGI (NCI/ADR-RES): 12.6 µM
- TGI (786-0): 4.15 µM
- TGI (ACHN): 11.6 µM
- TGI (SN12C): 56.2 µM
- TGI (UO-31 [10]): 3.34 µM
- TGI (PC-3): 6 µM
- TGI (MDA-MB-231 [11]): 5.07 µM
- GI50 at 48 h [12]: > 20 µM

- GI50 (NCI-H226): 2.55 µM
- GI50 (COLO 205 [1]): 1.87 µM
- GI50 (HCT-116): 1.11 µM
- GI50 (SW-620 [2]): 3.34 µM
- GI50 (SK-MEL-5): 1.14 µM
- GI50 (MDA-MB-231 [5]): 2.83 µM
- inhibition (Homo sapiens): -0.53%
- inhibition [14]: 10.4%
- inhibition [15]: 24.8%
Structure (SMILES): COc1cc2cc(Oc3ccc(NC(=O)Nc4ccc(F)c(C(F)(F)F)c4)cc3)c(C)nc2cc1OCCN1CCOCC1
- GI50 (KM12): 2.69 µM
- GI50 (SNB-19): 3.96 µM
- GI50 (SNB-75 [3]): 1.96 µM
- GI50 (LOX IMVI): 1.44 µM
- GI50 (Malme-3M): 1.57 µM
- GI50 (M14): 1.53 µM
- GI50 (UACC-257): 1.75 µM
- GI50 (IGROV-1): 2.69 µM
- GI50 (UO-31 [4]): 1.71 µM
- TGI (CCRF-CEM): 11.5 µM
- TGI (RPMI-8226 [6]): 4.25 µM
- TGI (EKVX): 20.7 µM
- TGI (COLO 205 [7]): 4.28 µM
- TGI (SW-620 [8]): 9.86 µM
- TGI (SF-295): 4.22 µM
- TGI (SF-539): 3.44 µM
- TGI (SNB-75 [9]): 7.45 µM
- TGI (U-251): 11.1 µM
- TGI (SK-MEL-2): 7.58 µM
- TGI (UACC-62): 4.24 µM
- TGI (OVCAR-3): 13.6 µM
- TGI (NCI/ADR-RES): 12.1 µM
- TGI (786-0): 3.44 µM
- TGI (ACHN): 11.4 µM
- TGI (SN12C): 15.5 µM
- TGI (UO-31 [10]): 10.6 µM
- TGI (PC-3): 10.1 µM
- TGI (MDA-MB-231 [11]): 9.02 µM
- GI50 at 48 h [12]: > 20 µM
